Results published in patent US7812142B2, “Pentose derivatives as anti-hyperglycemic drugs” (Yissum Research Development Company of the Hebrew …, priority 2002, dated 2010).

Legend:
[1] = test system: GLUT-4; assay: Cell surface biotinylation and western blot of GLUT-4 in L6 myotubes; format: cell-based, rat; conditions: for translocation of GLUT-4 to the plasma membrane: L6 myotubes, xylose derivatives in the absence of insulin, insulin 500 nM (FIG. 10)
Description: (§1) FIG. 10: Western blot depicting effect of 3-O-propyl-D-xylose (EH-114), and 1,3-O-dimethylxylopyranoside (EH-101) on the total cell content and plasma membrane abundance of GLUT-4 in the absence or presence of insulin. L6 myotubes were maintained for 48 hr at 23 mM Glucose. The cells were than washed and received fresh medium containing the indicated additions and incubated for additional […]. Insulin was added during the last 30 min of incubation before the dGlc uptake assay.
(§2) GLUT-1 and GLUT-4 mediate glucose entry into L6 myotubes. It is established that GLUT-4 is translocated effectively and rapidly to the plasma membrane upon insulin treatment. The inventors looked at the effect of 3-O-propyl-D-xylose EH-114) and 1,3-O-dimethylxylopyranoside (EH-101) on the total cell content and plasma membrane abundance of these transporters in the absence or presence of insulin. L6 myotubes were maintained at 5.0 or 23.0 mM glucose for 48 hr and EH-114 and EH-101 were present during the last 24 hr. The cells were then taken for the standard [^3H]-2-deoxy-D-glucose uptake assay and for the biotinylation procedure for determining the amount of GLUT-1 and GLUT-4 in the plasma membrane. High glucose levels decreased the hexose transport rate by ˜50%. Insulin augmented the transport nearly 2-fold in both cases. EH-114 and EH-101 increased the transport rate 2-3-fold in the absence of insulin. Together with insulin the uptake rate was increased nearly 3-fold.
Surface biotinylation of the cells was performed as previously described [Sasson et al (1997), Diabetologia, 40, 30-398].

[2] = test system: L6 myotubes; assay: dGlc uptake assay in L6 myotubes; format: cell-based, rat; conditions: for effect of PI3-kinase inhibitor LY-249002 on the substance's stimulation of hexose transport: 60 μM inhibitor, 23.0 mM glucose (FIG. 11A), EH-40 data not shown
Description: as §1
FIG. 11A: Effect of LY-249002, a PI3-kinase inhibitor, on insulin, D-xylose, EH-101 and EH-114-mediated glucose uptake. L6 myotubes were treated as described in the legend to FIG. 10. The glucose concentration in the culture medium was 23.0 mM. The concentration of LY-294002 was 60 μM. At the end of incubation the cells were taken for the standard dGlc uptake assay. Mean±SEM, n=3.
as §2
The inventors also tested the hypothesis that the active D-xylose derivatives augment the hexose transport capacity in L6 myotubes by translocating GLUT-4 to the plasma membrane not via the common insulin-regulated pathway. For this experiment, a selective inhibitor of the enzyme PI3-kinase, LY-249002, which is a key enzyme in the cellular transduction mechanism of insulin, was utilized. […] These findings also agree well with the longer onset of action of these derivatives as compared to the rapid action of insulin. Similar results were obtained when LY-249002 was present together with the derivatives throughout the entire incubation period.
(§3) Uptake assay of the tritiated glucose analogue, 2-deoxy-D-glucose, is routinely performed as described in [Sasson, S. and Cerasi, E. (1986) J. Biol. Chem. 261, 16827-16833].

[3] = test system: glucose uptake in cultured cells; assay: In vitro glucose uptake / hexose transport in cultured cells with xylose derivatives (Table 2); format: cell-based; conditions: for EC50 / ECmax: EC = Effective concentration
Description: Table 2 summarizes in vitro results obtained with some of these newly synthesized xylose derivatives.
as §3
All new compounds are screened and tested first in various insulin-sensitive cell cultures used routinely in the laboratory (skeletal muscle and adipose cell lines). In addition these drugs were tested in non-insulin-sensitive cells such as primary cultures of bovine and porcine vascular endothelial and smooth muscle cells. Active compounds were tested ex-vivo on isolated rat soleus muscles. All cell cultures and tissues were maintained under hyperglycemic condition prior to the addition of the test compounds. Dose-response and time-course experiments determine which of the derivatives are subsequently tested in animal models. For each potent compound the total cell content and plasma membrane abundance of GLUT-1 and GLUT-4 was determined, as described above. The same biotinylation technique was employed to determine the total and plasma membrane content of both transporters in isolated mouse or rat soleus muscles treated with potent compounds.

[4] = test system: PKB; assay: PKB phosphorylation immunoblot in L6 myotubes; format: cell-based, rat; conditions: 23.0 mM glucose; 100 nM insulin, 20 mM xylose, 5 mM EH-114 or 250 μM EH-40, up to 24 hrs (FIG. 11B)
Description: FIG. 11B: Effects of insulin D-xylose and xylose derivatives on PKB phosphorylation. L6 myotubes were maintained at 5.5 mM or 23.0 mM glucose. The latter were treated with 100 nM insulin, 20 mM xylose, 5 mM EH-114 or 250 μM EH-40 up to 24 hrs. At the indicated times treated myotubes were collected, homogenized and lysed and the soluble protein fraction was isolated. The control myotubes were collected at the end of the 24 hr incubation period. Equal amounts of proteins of the various treated myotubes were separated on SDS-PAGE and immunoblotted with a specific antibody against phospho-Axt1/PKBα (Ser473). In order to test whether xylose derivative activate insulin transduction elements downstream of PI3K, the inventors tested the state of PKB phosphorylation, as shown in FIG. 11B.

[5] = test system: GLUT-1; assay: Cell surface biotinylation and western blot of GLUT-1 in L6 myotubes; format: cell-based, rat; conditions: data not shown
Description: as §2
FIG. 10 presents the western blots showing the results of such a representative experiment. Under hyperglycemic conditions the total cell content of GLUT-4 was reduced as well as its plasma membrane abundance [lanes 1 & 2 for Total cell content and PM (plasma membrane) fractions]. […]

[6] = Solubility of EH-36; format: physicochemical; conditions: e.g., DMSO, ethanol and oil
[7] = test system: streptozotocin-diabetic C57/black mice; assay: Anti-hyperglycemic activity in streptozotocin-diabetic mice; format: in vivo, mouse
Description: FIG. 12: Anti-hyperglycemic activity of EH-36 in streptozotocin-diabetic mice. Mice were treated with EH-36 or the vehicle alone (sesame oil, bold lines), and their blood glucose levels determined at the indicated time intervals. Male C57/black mice were made hyperglycemic by 5 repeated daily injections of streptozotocin (i.p. 50 mg/Kg body weight). EH-36 was dissolved in sesame oil (4 mg/ml) and injected s.c (400 μg) twice a day.
FIG. 13: Anti-hyperglycemic activity of EH-36 in streptozotocin-diabetic mice. Mice were treated with EH-36 (as described in the legend to FIG. 12) or the vehicle alone (sesame oil, bold lines), and their blood glucose levels were determined at the indicated time intervals. C57/black mice were made diabetic as described in the legend to FIG. 12.
EH-36 was tested for its potential anti-hyperglycemic activity in an animal model of diabetes. Male C57/black mice were made diabetic by daily i.p. injections of streptozotocin (50 mg/Kg) for 5 days. After 10 days the fasting blood glucose of these mice was above 300 mg/dL as compared to 80-130 mg/dL of control mice. Unlike a single and high dose injection of streptozotocin, which produces an animal model for Type 1 diabetes, the repeated low-dose injections produce a model that more closely resembles Type 2 diabetes. (Fraser, R. B., Rowden, G., Colp, P, And Wright, J. R. Jr.: Immunophenotyping of insulitis in control and essential fatty aid deficient mice treated with multiple low-dose streptozotocin. Diabetologia, 40:1263-1268, 1997).
EH-36 was dissolved in sesame oil (4 mg/ml) and injected into Streptozotocin-diabetic mice (s.c. 400 μg, twice a day at 08 and 18 hrs). Blood was withdrawn from the tip of the tails and glucose levels were measured with a glucometer.

[8] = Serum level of EH-36 in rats by HPLC; format: in vivo, rat; conditions: 16 mg/day in sesame oil s.c. for 3 days, serum on fourth day, preliminary
Description: Extract aliquots (30 μl) were analyzed by reverse phase HPLC in a 150×4.6 mm, 3μ ODS Hypersil® column (Thermohypersil-Keystone, Bellfonte, Pa.) connected to an L-4200 UV-Vis detector (272 nm). Elution was at a flow rate of 1.5 ml/min with water and acetonitrile gradient: the initial solvent mixture was 30% water:70% acetonitrile:. A convex gradient over 20 min then followed to 100% acetonitrile.
The pharmacokinetic parameters of EH-36 were determined by the following procedure. Rats (3 per group per time point) were anesthetized and their blood collected from the portal vein. The serum was separated and extracted with chloroform. The extract was dried and redissolved in a small volume of chloroform and separated by HPLC and identified by UV absorption. The animals were treated with 16 mg/day (in sesame oil, s.c.) for 3 days. On the fourth day the animals were sacrificed and serum was isolated, extracted and separated by HPLC. There was a distinct peak of EH-36 corresponding to 1.01 mg/ml EH-36. To verify that this peak corresponds to EH-36 a known quantity of this compound was added to a serum sample taken from the EH-36-treated rats. Following extraction and HPLC analysis the only peak that was intensified was that corresponding to EH-36. […]

[9] = test system: non-diabetic mice; assay: Blood glucose level of non-diabetic mice; conditions: mouse, in vivo
[10] = test system: streptozotocin-diabetic mice; assay: Glucose tolerance test (GTT) of diabetic mice; format: in vivo, mouse
Description: FIG. 14: Glucose tolerance test (GTT) of diabetic mice treated with sesame oil or EH-36 for 9 days, as described in the legend to FIG. 12. On the morning of the 10th day and following an overnight fast the mice received glucose (2 gr/Kg body weight) by i.p. injection, Blood glucose was determined for 3 hr at 30 min intervals. The glucose data were plotted for each animal and the area under the curve (AUC) was calculated.
In another set of experiments similar diabetic mice were treated with the oil or EH-36 (1.5 mg, s.c. twice a day) for 9 days. On the morning of the 10th day and following an overnight fast the mice were subjected to a glucose tolerance test (GTT). The mice received D-glucose by i.p. injections (2 gr/kg body weight). Blood glucose as monitored for 3 hr at 30 min intervals.

CCCO[C@@H]([C@H](O)CO)[C@@H](O)C=O [EH-114, 3-O-propyl-D-xylose]
total cell content of GLUT-4 ([1]; L6 cells exposed to 23.0 mM glucose (FIG. 10)): increased the total content of the transporter
translocation of GLUT-4 to the plasma membrane [1]: induced significant translocation of GLUT-4 to the plasma membrane
effect of PI3-kinase inhibitor LY-249002 on the substance's stimulation of hexose transport [2]: failed to affect
increase of uptake rate together with insulin ([2]; L6 myotubes, compound during last 24 hr plus insulin): ~3 fold
Fold Increase of Glucose Uptake [3]: 2.6 fold
EC50 [3]: 3000 µM
ECmax [3]: 4.5 mM
duration of activity following removal from the culture media ([3]; after being washed from cell cultures): 24 h
PKB phosphorylation [4]: failed to induce significant phosphorylation

Insulin: insulin, hormone used as positive control for glucose transport stimulation [reference compound]
effect on GLUT-1 (blots with anti GLUT-1 antibody) [5]: no effect
translocation of GLUT-4 to the plasma membrane [1]: translocation of GLUT-4 to the plasma membrane
effect of PI3-kinase inhibitor LY-249002 on the substance's stimulation of hexose transport [2]: eliminated the stimulatory effect
augmentation of transport by insulin ([2]; at 5.0 and 23.0 mM glucose): ~2 fold
PKB phosphorylation [4]: prominent, but transient phosphorylation

CCSC(SCC)[C@@H]1OC(c2ccccc2)O[C@H](CO)[C@@H]1O (stereo partly drawn) [EH-40, 2,4-benzylidene-D-xylose-diethyl-dithioacetal]
effect of PI3-kinase inhibitor LY-249002 on the substance's stimulation of hexose transport [2]: abolished
PKB phosphorylation [4]: time-dependent and sustained phosphorylation

CCSC(SCC)[C@@H]1OC(c2ccccc2)O[C@@H]2COC(c3ccccc3)O[C@@H]21 (stereo partly drawn) [EH-36, 2,4:3,5 di-O-benzylidene-D-xylose-diethyl-dithioacetal]
solubility [6]: very limited solubility in most common organic solvents
blood glucose level ([7]; 400 μg s.c. in sesame oil twice a day (FIG. 13)): reduced their blood glucose level to the normoglycemic range
duration of effect after treatment ([7]; after the last injection): at least 3 weeks
blood glucose levels after treatment stopped ([7]; left untreated for four additional weeks after 9-day injection): 250 to 350 mg/dL
appearance of animals after treatment stopped ([7]; untreated for four additional weeks): looked normal and healthy
serum concentration [8]: 1010 µg/mL
Fold Increase of Glucose Uptake [3]: 2.0 fold
onset of action [3]: 24 to 48 h
time to maximal stimulatory effects [3]: ≤ 48 h
EC50 [3]: 2 µM
ECmax [3]: 0.01 mM
potency relative to D-xylose ([3]; more potent than xylose): 2000 fold
blood glucose level of non-diabetic mice [9]: Neither EH-36 nor the vehicle changed significantly
average AUC of GTT ([10]; 1.5 mg s.c. twice a day for 9 days, glucose 2 gr/kg i.p. on 10th day, ±SEM): 6.42±1.62 mg glucose/ml/hr
improvement of glucose clearance ([10]; following a 9-day treatment): ~50%
